Experimental findings from patent US20120237441A9, “ENHANCED B CELL CYTOTOXICITY OF CDIM BINDING ANTIBODY” (priority 2003, published 2012) are described below.

Several values for one entry are separate records, joined by “and”; a condition that tells them apart may be missing. Equal entries are not always repeated.

One test has as its system Nalm-6 cells. The test is described as follows: Cell viability assay using PI staining and forward scatter. The test is classed as cell-based, human. The note with it: for effect of caspase inhibitor on cell viability: 10 μM for 2 hr at 37° C. before treatment with mAb 216; for viability: cytochalasin 5 μgs/ml or jasplakinolide 3 μgs/ml for 2 hr, then control antibodies. Here is the method:
The integrity of the plasma membrane was assessed by the ability of cells to exclude propidium iodide (PI, Sigma, St. Louis, Mo.). The level of PI incorporation was quantitated by flow cytometry on FACScan (Becton-Dickinson, San Jose Calif.) interfaced with VersatermPro and FlowJo software at Stanford's FACS facility. PI-negative cells with normal size as measured by forward scatter signals were considered live cells.
Briefly, cells were treated as specified in each experiment and resuspended in PBS with 3% FCS and 10 μgs/ml of PI. In experiments where toxicity was evaluated in Ca-free medium, cells were resuspended in appropriate media with or without calcium to which 10 μgs/ml PI was added. Since previous studies have shown that mAb 216-mediated toxicity is remarkably pronounced at lower temperatures (Bhat, N. M., et al. (1996) Clin. Exp. Immunol. 105:183), precautions were taken to keep all media and cells at 37° C. and the centrifuge at room temperature.
Cytochalasin was obtained from Sigma and jasplakinolide was obtained from Molecular Probes (Eugene, Oreg.). Caspase inhibitors, Ac-IETD-CHO and Ac-DEVD-CHO were obtained from PharMingen (San Diego, Calif.). Nalm-6 cells (1×10^6 cells/ml) were treated with jasplakinolide (3 μgs/ml), cytochalasin (5 μgs/ml), or caspase inhibitors (10 μM) for 2 hr at 37° C. before treatment with mAb 216. Control samples with equivalent amounts of DMSO were set in parallel. Cells were then exposed to 25 μg of mAb 216 or control Ab and analyzed by flow cytometry.
Since exocytosis of lysosomes is known to be a calcium dependent phenomenon (Miyake, K., and P. L. McNeil (1995) J. Cell Biol. 131:1737; Bi, G. Q., et al. (1995) J. Cell Biol. 131:1747), membrane wounding by mAb 216 nd repair of the wound was tested in calcium free and normal calcium conditions. The cell viability of Nalm-6 cells when treated with two VH4-34 encoded mAbs, mAb 216 at 50, 25 and 12.5 ng/ml concentrations, and Y2K at 50 ng/ml, was tested in the presence of media with and without calcium.
Brefeldin-A was obtained from Sigma. Nalm-6 cells (1×10^6 cells/ml) were treated with BFA (25 μg/ml) for 2 hr at 37° C. before treatment with mAb 216. Control samples with equivalent amounts of DMSO were set in parallel. Cells were then exposed to 25 μg of mAb 216 or control Ab and analyzed by flow cytometry.

The test system of another test is SUP B15. The test is described as follows: In vitro cytotoxicity of mAb216 in combination with chemotherapeutic agents. The test is classed as cell-based. The note with it: 48 h; for % change in live cells: versus control. Here is the method:
(§1) Three cell lines which have been derived from ALL blasts of different genotype and phenotype, Nalm 6, REH, and SUPB15, were incubated with mAb 216 alone or in combination with vincristine (VCR), for 48 hours at 37° C.
(§2) In vitro cytotoxicity of mAb216 in combination with single chemotherapeutic agents was tested. Three cell lines which have been derived from ALL blasts of different genotype and phenotype, Nalm 6, REH, and SUPB 15, were incubated with mAb 216 alone or in combination with vincristine (VCR), daunorubicin (DNR), or L-asparaginase (ASPR).

In another test the test system is Reh. The description is as above. The test is classed as cell-based, human. The note with it: 48 h; for % change in live cells: versus control. Here is the method:
as §1, §2

The test system of a further test is Nalm 6. The test is described as above. The test is classed as cell-based, human. The conditions noted are these: for Live cells ×10^5 / % change in live cells: 48 h; for % change in live cells: versus control. Here is the method: as §1, §2

For Ac-DEVD-CHO, the “effect of caspase inhibitor on cell viability” value with Nalm-6 cells is on record as “did not alter cell viability”.
As for `C[C@H]1CCC/C=C/[C@@H]2C[C@H](O)C[C@H]2[C@H](O)/C=C/C(=O)O1` [BFA, Brefeldin A], the “viability of cells treated with control antibodies” value in the test with Nalm-6 cells (BFA 25 μg/ml for 2 hr) is “no effect”.
For `CC[C@]1(O)C[C@H]2CN(CCc3c([nH]c4ccccc34)[C@@](C(=O)OC)(c3cc4c(cc3OC)N(C=O)[C@H]3[C@@](O)(C(=O)OC)[C@H](OC(C)=O)[C@]5(CC)C=CCN6CC[C@]43[C@@H]65)C2)C1` [VCR, vincristine], the “Live cells ×10^5” value with SUP B15 (VCR 2 ng/ml) was 2.8 ×10^5; with Reh (VCR 2 ng/ml), 4.2 ×10^5 and 7.7 ×10^5; with Nalm 6 (VCR 0.2 ng/ml) it was 13 ×10^5; with Nalm 6 (VCR 2 ng/ml), 5 ×10^5. Further, the “% change in live cells” value in the test on SUP B15 (VCR 2 ng/ml) was 45%; in the test on Nalm 6 (VCR 0.2 ng/ml), 0%; with Nalm 6 (VCR 2 ng/ml) it was 54%. Further, in the test with Nalm 6 (vincristine 0.2 ng/ml, 48 hours at 37° C.), the “cell death due to vincristine alone” value was “no cell death occurred”.
Consider `COc1cccc2c1C(=O)c1c(O)c3c(c(O)c1C2=O)C[C@@](O)(C(C)=O)C[C@@H]3O[C@H]1C[C@H](N)[C@H](O)[C@H](C)O1` [DNR, daunorubicin], for which the “Live cells ×10^5” value was 0.44 ×10^5 in the test on SUP B15 (DNR 4 ng/ml); 4.5 ×10^5 in the test on Reh (DNR 5 ng/ml); 4.3 ×10^5 and 4.5 ×10^5 with Nalm 6 (DNR 5 ng/ml). In addition, the “% change in live cells” value in the test with SUP B15 (DNR 4 ng/ml) was 91%; in the test with Reh (DNR 5 ng/ml) it was 65%; in the test with Nalm 6 (DNR 5 ng/ml), 47% and 59%.
On to cytochalasin, for which the viability result with Nalm-6 cells is “did not show a decrease in viability”.
The same measure, in the same setting: the same measure for `C/C1=C\[C@H](C)C[C@H](C)OC(=O)C[C@H](c2ccc(O)cc2)NC(=O)[C@@H](Cc2c(Br)[nH]c3ccccc23)N(C)C(=O)[C@H](C)NC(=O)[C@@H](C)C1` [jasplakinolide]: “did not show a decrease in viability”.
Consider Ac-IETD-aldehyde, for which the “effect of caspase inhibitor on cell viability” value in the test with Nalm-6 cells is “did not alter cell viability”.

B1: L-asparaginase (protein, UniProt P00805 23-348, looked up)
L-asparaginase 2: LPNITILATGGTIAGGGDSATKSNYTVGKVGVENLVNAVPQLKDIANVKGEQVVNIGSQDMNDNVWLTLAKKINTDCDKTDGFVITHGTDTMEETAYFLDLTVKCDKPVVMVGAMRPSTSMSADGPFNLYNAVVTAADKASANRGVLVVMNDTVLDGRDVTKTNTTDVATFKSVNYGPLGYIHNGKIDYQRTPARKHTSDTPFDVSKLNELPKVGIVYNYANASDLPAKALVDAGYDGIVSAGVGNGNLYKSVFDTLATAAKTGTAVVRSSRVPTGATTQDAEVDDAKYGFVASGTLNPQKARVLLQLALTQTKDPQQIQQIFNQY
As to B1, the results for the “Live cells ×10^5” value with SUP B15 (ASPR 0.8 U/ml), in the test on Reh (ASPR 0.8 U/ml) and in the test with Nalm 6 (ASPR 0.8 U/ml) were 3 ×10^5, 6.2 ×10^5 and 9.2 ×10^5, respectively. For the same molecule, the “% change in live cells” value in the test on SUP B15 (ASPR 0.8 U/ml) turned out to be 47%; with Reh (ASPR 0.8 U/ml), 35%; in the test on Nalm 6 (ASPR 0.8 U/ml) it was 23%.
